pKd: −log10 of the molar value. Starred links: 1 amine or outer side, 2 acyl side, 3 side chain; linkers in the order of their positions; H or OH if unused. Positions of bridges follow the written chain, without caps; N, C: chain ends. Non-standard residues stand in square brackets, D forms with d. Residues, ends and D or L forms follow the SMILES beside them. Groups on a side chain read outwards from the residue. *: point of attachment. X12 = O=C(O)CN1CCN(CC(=O)O)CCN([C@@H](CCC(=O)*)C(=O)O)CCN(CC(=O)O)CC1; Ala(piperidin-4-yl) = O=C([C@H](CC1CCN([*:3])CC1)N[*:1])[*:2]; DOTA = O=C(O)CN1CCN(CC(=O)O)CCN(CC(=O)*)CCN(CC(=O)O)CC1; Trp(5-F) = N[C@@H](Cc1c[nH]c2ccc(F)cc12)C(=O)O; Phe(3R-Me) = C[C@H](c1ccccc1)[C@H](N)C(=O)O; γGlu = O=C(O)[C@H](CCC(=O)[*:2])N[*:1]; 1Nal = N[C@@H](Cc1cccc2ccccc12)C(=O)O; Ala(4-THP) = N[C@@H](CC1CCOCC1)C(=O)O; X3 = O=C([C@H](CCC1CCC1)N[*:1])[*:2]; Ile(3-Me) = CCC(C)(C)[C@H](N)C(=O)O; Val(3-OH) = CC(C)(O)[C@H](N)C(=O)O; hCha = N[C@@H](CCC1CCCCC1)C(=O)O; PEG4 = NCCOCCOCCOCCOCCC(=O)O; Tle = CC(C)(C)[C@H](N)C(=O)O; hLeu = CC(C)CC[C@H](N)C(=O)O; Dab = NCC[C@H](N)C(=O)O
Target: T1, human 4lg B7-H3 (Homo sapiens, UniProt Q5ZPR3)
T1 sequence (Q5ZPR3 29-534): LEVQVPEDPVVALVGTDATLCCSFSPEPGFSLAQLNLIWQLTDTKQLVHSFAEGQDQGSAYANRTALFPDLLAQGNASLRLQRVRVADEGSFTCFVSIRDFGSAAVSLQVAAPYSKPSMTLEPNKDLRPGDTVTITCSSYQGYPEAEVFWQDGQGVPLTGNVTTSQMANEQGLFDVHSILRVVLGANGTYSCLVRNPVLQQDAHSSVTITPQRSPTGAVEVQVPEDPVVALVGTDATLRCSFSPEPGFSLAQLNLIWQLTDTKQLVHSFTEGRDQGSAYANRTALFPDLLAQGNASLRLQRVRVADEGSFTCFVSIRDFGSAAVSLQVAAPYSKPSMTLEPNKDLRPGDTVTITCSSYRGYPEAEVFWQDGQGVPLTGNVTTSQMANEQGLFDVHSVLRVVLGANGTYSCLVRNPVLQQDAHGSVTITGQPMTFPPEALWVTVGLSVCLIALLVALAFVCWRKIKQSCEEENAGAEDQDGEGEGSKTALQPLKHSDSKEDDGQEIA
Assay: Affinity determination by surface plasmon resonance (SPR) to 4Ig B7-H3
Settings: SPR KD—37° C., 4Ig B7-H3; 37° C. flow cell temperature

| pKd | SMILES |
| --- | --- |
| > 9.00 | CCC(C)(C)[C@@H]1NC(=O)[C@@H](NC(=O)[C@H](Cc2ccc(O)cc2)NC(=O)[C@H](CCC(C)C)NC(C)=O)CSSC[C@@H](C(=O)N[C@@H](Cc2c[nH]c3ccc(F)cc23)C(=O)N[C@@H](Cc2ccccc2)C(=O)N[C@H](C(=O)N[C@H](CCCCNC(=O)CN2CCN(CC(=O)O)CCN(CC(=O)O)CCN(CC(=O)O)CC2)C(=O)O)C(C)(C)O)NC(=O)[C@H](Cc2ccc(O)cc2)NC(=O)[C@H](C(C)C)NC(=O)[C@H](CC(=O)O)NC(=O)[C@H](CC2CCOCC2)NC(=O)[C@H](CC2CCNCC2)NC(=O)CNC1=O [compound 432, Ac-hLeu-Y-C-betaMelle-G-PipAla-ThpA-D-V-Y-C-5FW-F-hydroxyVal-dLys(DOTA)-COOH] (Ac-[hLeu]YC[Ile(3-Me)]G[Ala(piperidin-4-yl)][Ala(4-THP)]DVYC[Trp(5-F)]F[Val(3-OH)][dK](DOTA)-OH; disulfide 3-11) |
| > 9.00 | CC(=O)N[C@@H](CCC(C)C)C(=O)N[C@@H](Cc1ccc(O)cc1)C(=O)N[C@H]1CSSC[C@@H](C(=O)N[C@@H](Cc2c[nH]c3ccc(F)cc23)C(=O)N[C@H](C(=O)N[C@H](C(=O)N[C@H](CCCCNC(=O)CN2CCN(CC(=O)O)CCN(CC(=O)O)CCN(CC(=O)O)CC2)C(=O)O)C(C)(C)O)[C@H](C)c2ccccc2)NC(=O)[C@H](Cc2ccc(O)cc2)NC(=O)[C@H](C(C)C)NC(=O)[C@H](CC(=O)O)NC(=O)[C@H](CC2CCOCC2)NC(=O)[C@H](CC2CCNCC2)NC(=O)CNC(=O)[C@H](C(C)(C)C)NC1=O [compound 434, Ac-hLeu-Y-C-Tbg-G-PipAla-ThpA-D-V-Y-C-5FW-[(2S, 3R)beta-Me-Phe]-hydroxyVal-dLys(DOTA)-COOH] (Ac-[hLeu]YC[Tle]G[Ala(piperidin-4-yl)][Ala(4-THP)]DVYC[Trp(5-F)][Phe(3R-Me)][Val(3-OH)][dK](DOTA)-OH; disulfide 3-11) |
| > 9.00 | CC(=O)N[C@@H](CCC(C)C)C(=O)N[C@@H](Cc1ccc(O)cc1)C(=O)N[C@H]1CSSC[C@@H](C(=O)N[C@@H](Cc2cccc3ccccc23)C(=O)N[C@@H](Cc2ccccc2)C(=O)N[C@H](C(=O)N[C@H](CCCCNC(=O)CN2CCN(CC(=O)O)CCN(CC(=O)O)CCN(CC(=O)O)CC2)C(=O)O)C(C)(C)O)NC(=O)[C@H](Cc2ccc(O)cc2)NC(=O)[C@H](C(C)C)NC(=O)[C@H](CC(=O)O)NC(=O)[C@H](CC2CCOCC2)NC(=O)[C@H](CCN)NC(=O)CNC(=O)[C@H](C(C)(C)C)NC1=O [compound 435, Ac-hLeu-Y-C-Tbg-G-Dab-ThpA-D-V-Y-C-1Nal-F-hydroxyVal-dLys(DOTA)-COOH] (Ac-[hLeu]YC[Tle]G[Dab][Ala(4-THP)]DVYC[1Nal]F[Val(3-OH)][dK](DOTA)-OH; disulfide 3-11) |
| > 9.00 | CC(=O)N[C@@H](CCC(C)C)C(=O)N[C@@H](Cc1ccc(O)cc1)C(=O)N[C@H]1CSSC[C@@H](C(=O)N[C@@H](Cc2c[nH]c3ccc(F)cc23)C(=O)N[C@@H](Cc2ccccc2)C(=O)N[C@H](C(=O)N[C@H](CCCCNC(=O)CC[C@@H](C(=O)O)N2CCN(CC(=O)O)CCN(CC(=O)O)CCN(CC(=O)O)CC2)C(=O)O)C(C)(C)O)NC(=O)[C@H](Cc2ccc(O)cc2)NC(=O)[C@H](C(C)C)NC(=O)[C@H](CC(=O)O)NC(=O)[C@H](CC2CCOCC2)NC(=O)[C@H](CC2CCNCC2)NC(=O)CNC(=O)[C@H](C(C)(C)C)NC1=O [compound 439, Ac-hLeu-Y-C-Tbg-G-PipAla-ThpA-D-V-Y-C-5FW-F-hydroxyVal-dLys(S-DOTAGA)-COOH] (Ac-[hLeu]YC[Tle]G[Ala(piperidin-4-yl)][Ala(4-THP)]DVYC[Trp(5-F)]F[Val(3-OH)][dK](X12)-OH; disulfide 3-11) |
| > 9.00 | CC(=O)N[C@@H](CCC(C)C)C(=O)N[C@@H](Cc1ccc(O)cc1)C(=O)N[C@H]1CSSC[C@@H](C(=O)N[C@@H](Cc2cccc3ccccc23)C(=O)N[C@@H](Cc2ccccc2)C(=O)N[C@H](C(=O)N[C@H](CCCCNC(=O)CC[C@H](NC(=O)CN2CCN(CC(=O)O)CCN(CC(=O)O)CCN(CC(=O)O)CC2)C(=O)O)C(=O)O)C(C)(C)O)NC(=O)[C@H](Cc2ccc(O)cc2)NC(=O)[C@H](C(C)C)NC(=O)[C@H](CC(=O)O)NC(=O)[C@H](CC2CCOCC2)NC(=O)[C@H](CC2CCNCC2)NC(=O)CNC(=O)[C@H](C(C)(C)C)NC1=O [compound 441, Ac-hLeu-Y-C-Tbg-G-PipAla-ThpA-D-V-Y-C-1Nal-F-hydroxyVal-dLys(gGlu-DOTA)-COOH] (Ac-[hLeu]YC[Tle]G[Ala(piperidin-4-yl)][Ala(4-THP)]DVYC[1Nal]F[Val(3-OH)][dK]([γGlu-DOTA])-OH; disulfide 3-11) |
| > 9.00 | CC(=O)N[C@@H](CCC1CCCCC1)C(=O)N[C@@H](Cc1ccc(O)cc1)C(=O)N[C@H]1CSSC[C@@H](C(=O)N[C@@H](Cc2c[nH]c3ccc(F)cc23)C(=O)N[C@@H](Cc2ccccc2)C(=O)N[C@H](C(=O)N[C@H](CCCCNC(=O)CN2CCN(CC(=O)O)CCN(CC(=O)O)CCN(CC(=O)O)CC2)C(=O)O)C(C)(C)O)NC(=O)[C@H](Cc2ccc(O)cc2)NC(=O)[C@H](C(C)C)NC(=O)[C@H](CC(=O)O)NC(=O)[C@H](CC2CCOCC2)NC(=O)[C@H](CC2CCNCC2)NC(=O)CNC(=O)[C@H](C(C)(C)C)NC1=O [compound 442, Ac-hCha-Y-C-Tbg-G-PipAla-ThpA-D-V-Y-C-5FW-F-hydroxyVal-dLys(DOTA)-COOH] (Ac-[hCha]YC[Tle]G[Ala(piperidin-4-yl)][Ala(4-THP)]DVYC[Trp(5-F)]F[Val(3-OH)][dK](DOTA)-OH; disulfide 3-11) |
| > 9.00 | CC(=O)N[C@@H](CCC1CCC1)C(=O)N[C@@H](Cc1ccc(O)cc1)C(=O)N[C@H]1CSSC[C@@H](C(=O)N[C@@H](Cc2c[nH]c3ccc(F)cc23)C(=O)N[C@@H](Cc2ccccc2)C(=O)N[C@H](C(=O)N[C@H](CCCCNC(=O)CN2CCN(CC(=O)O)CCN(CC(=O)O)CCN(CC(=O)O)CC2)C(=O)O)C(C)(C)O)NC(=O)[C@H](Cc2ccc(O)cc2)NC(=O)[C@H](C(C)C)NC(=O)[C@H](CC(=O)O)NC(=O)[C@H](CC2CCOCC2)NC(=O)[C@H](CC2CCNCC2)NC(=O)CNC(=O)[C@H](C(C)(C)C)NC1=O [compound 443, Ac-hCba-Y-C-Tbg-G-PipAla-ThpA-D-V-Y-C-5FW-F-hydroxyVal-dLys(DOTA)-COOH] (Ac-[X3]YC[Tle]G[Ala(piperidin-4-yl)][Ala(4-THP)]DVYC[Trp(5-F)]F[Val(3-OH)][dK](DOTA)-OH; disulfide 3-11) |
| > 9.00 | CC(=O)N[C@@H](CCC(C)C)C(=O)N[C@@H](Cc1ccc(O)cc1)C(=O)N[C@H]1CSSC[C@@H](C(=O)N[C@@H](Cc2c[nH]c3ccc(F)cc23)C(=O)N[C@@H](Cc2ccccc2)C(=O)N[C@H](C(N)=O)C(C)(C)O)NC(=O)[C@H](Cc2ccc(O)cc2)NC(=O)[C@H](C(C)C)NC(=O)[C@H](CC(=O)O)NC(=O)[C@H](CC2CCN(C(=O)CCOCCOCCOCCOCCNC(=O)CN3CCN(CC(=O)O)CCN(CC(=O)O)CCN(CC(=O)O)CC3)CC2)NC(=O)[C@H](CC2CCNCC2)NC(=O)CNC(=O)[C@H](C(C)(C)C)NC1=O [compound 445, Ac-hLeu-Y-C-Tbg-G-PipAla-Pip(PEG4-DOTA)Ala-D-V-Y-C-5FW-F-hydroxyVal-CONH2] (Ac-[hLeu]YC[Tle]G[Ala(piperidin-4-yl)][Ala(piperidin-4-yl)]([PEG4-DOTA])DVYC[Trp(5-F)]F[Val(3-OH)]-NH2; disulfide 3-11) |
| > 9.00 | CC(=O)N[C@@H](CCC(C)C)C(=O)N[C@@H](Cc1ccc(O)cc1)C(=O)N[C@H]1CSSC[C@@H](C(=O)N[C@@H](Cc2c[nH]c3ccc(F)cc23)C(=O)N[C@@H](Cc2ccccc2)C(=O)N[C@H](C(=O)N[C@H](CO)C(N)=O)C(C)(C)O)NC(=O)[C@H](Cc2ccc(O)cc2)NC(=O)[C@H](C(C)C)NC(=O)[C@H](CC(=O)O)NC(=O)[C@H](CC2CCN(C(=O)CCOCCOCCOCCOCCNC(=O)CN3CCN(CC(=O)O)CCN(CC(=O)O)CCN(CC(=O)O)CC3)CC2)NC(=O)[C@H](CC2CCNCC2)NC(=O)CNC(=O)[C@H](C(C)(C)C)NC1=O [compound 446, Ac-hLeu-Y-C-Tbg-G-PipAla-Pip(PEG4-DOTA)Ala-D-V-Y-C-5FW-F-hydroxyVal-dSer-CONH2] (Ac-[hLeu]YC[Tle]G[Ala(piperidin-4-yl)][Ala(piperidin-4-yl)]([PEG4-DOTA])DVYC[Trp(5-F)]F[Val(3-OH)][dS]-NH2; disulfide 3-11) |
| > 9.00 | CC(=O)N[C@@H](CCC(C)C)C(=O)N[C@@H](Cc1ccc(O)cc1)C(=O)N[C@H]1CSSC[C@@H](C(=O)N[C@@H](Cc2c[nH]c3ccc(F)cc23)C(=O)N[C@@H](Cc2ccccc2)C(=O)N[C@H](C(=O)N[C@H](CCC(=O)O)C(N)=O)C(C)(C)O)NC(=O)[C@H](Cc2ccc(O)cc2)NC(=O)[C@H](C(C)C)NC(=O)[C@H](CC(=O)O)NC(=O)[C@H](CC2CCN(C(=O)CN3CCN(CC(=O)O)CCN(CC(=O)O)CCN(CC(=O)O)CC3)CC2)NC(=O)[C@H](CC2CCNCC2)NC(=O)CNC(=O)[C@H](C(C)(C)C)NC1=O [compound 447, Ac-hLeu-Y-C-Tbg-G-PipAla-Pip(DOTA)Ala-D-V-Y-C-5FW-F-hydroxyVal-dGlu-CONH2] (Ac-[hLeu]YC[Tle]G[Ala(piperidin-4-yl)][Ala(piperidin-4-yl)](DOTA)DVYC[Trp(5-F)]F[Val(3-OH)][dE]-NH2; disulfide 3-11) |

Reference: patent US20250296959A1, “B7-H3 TARGETING PEPTIDES AND CONSTRUCTS THEREOF” (Mariana Oncology Inc., priority 2024, published 2025)
